System: patients with Wilson disease (WD)
Experiment: UWDRS Part III total score, functional subscale and individual items (neurological examination)
Type: in vivo, human
Protocol: The UWDRS scoring system was developed specifically for the motor and movement disorders associated with chronic copper neurotoxicity in WD. Some individual items/subscales of the UWDRS Part III (arising from a chair, gait, handwriting, and speech) in addition to the UWDRS Parts I, II, and III overall, were assessed to further define the range of burdensome signs and symptoms of WD, so as to further understand the assessment of treatment effects on patients with WD. The UWDRS scores for consciousness (Part I) and abnormal neurologic examination findings (Part III) will be determined by a trained neurologist rater who is blinded to study treatment randomization. These scores were used to provide a rigorous dataset for evaluating changes from baseline.
Unified Wilson Disease Rating Scale (Parts I, II, and III): The UWDRS is a clinical rating scale designed to evaluate the neurological manifestations of WD that generally can be divided into 3 movement disorder syndromes: dystonic, ataxic, and Parkinsonian syndrome. The UWDRS comprises 3 parts: UWDRS Part I (level of consciousness, item 1), UWDRS Part II (a patient-reported review of daily activity items [disability], items 2 to 11), and UWDRS Part III (a detailed neurological examination, items 12 to 34).
The UWDRS Part I and Part III were assessed by a neurologist who is blinded to the treatment randomization, while UWDRS Part II may be reported to a non-blinded member of the study team by the patient, family member, or caregiver. The UWDRS has not been formally evaluated in adolescents. However, the components of Part I (level of consciousness), Part II (patient or caregiver-reported disability) and Part III (neurologic examination findings) were not fundamentally different between adults and adolescents. Patients aged 12 years and older were expected to be able to comply with UWDRS assessments.
Pooled results from all such participants will be integrated together into one timeline to allow analyses of changes in UWDRS, long-term copper control, and long-term safety laboratory data.
Endpoints (directly measured non-ceruloplasmin-bound copper [dNCC], UWDRS III (rater blinded) total and individual item scores, Clinical Global Impression-Improvement [CGI-I]) were evaluated at baseline (BL) and Week 48 (W48). Normalization (score decrease to 0), improvement (≥1 point decrease), stability (no change), or worsening (≥1 point increase) of total and individual UWDRS III item scores were evaluated at W48.

[1] = Week 144, Study 301 TTM long term set
[2] = difference of changes Wk 48 - BL

bis-choline tetrathiomolybdate [TTM]
UWDRS Part III-handwriting (0-4) change from baseline, Mean [1]: −0.5
UWDRS Part III-speech (0-4) change from baseline, LSM [1]: −0.3
UWDRS Part III-speech (0-4) change from baseline, Mean [1]: −0.2
UWDRS symptom: Arising from chair (Wk 48): 86
UWDRS symptom: Arm and hand Dystonia (Wk 48): 67
UWDRS symptom: Cervical Dystonia (Wk 48): 82
UWDRS symptom: Chorea (Wk 48): 91
UWDRS symptom: Facial Expression (Wk 48): 58
UWDRS symptom: Finger Taps (Wk 48): 59
UWDRS symptom: Finger to Nose (Wk 48): 76
UWDRS symptom: Gait (Wk 48): 63
UWDRS symptom: Handwriting (Wk 48): 71
UWDRS symptom: Head Tremor (Wk 48): 89
UWDRS symptom: Involuntary Crying (Wk 48): 99
UWDRS symptom: Jaw Tremor (Wk 48): 99
UWDRS symptom: Leg Ability (Wk 48): 66
UWDRS symptom: Oculomotor (Wk 48): 87
UWDRS symptom: Postural Arm Tremor (Wk 48): 58
UWDRS symptom: Postural Leg Tremor (Wk 48): 73
UWDRS symptom: Posture (Wk 48): 71
UWDRS symptom: Pyramidal Signs (Wk 48): 87
UWDRS symptom: RAM of Hands (Wk 48): 62
UWDRS symptom: Rigidity (Wk 48): 72
UWDRS symptom: Speech (Wk 48): 51
UWDRS symptom: Stereotyped Actions (Wk 48): 89
UWDRS symptom: Tremor at rest (Wk 48): 76
UWDRS symptom: Wing-beating tremor (Wk 48): 67
UWDRS symptom: Arising from chair, Change (Wk 48 - BL) (Wk 48 - BL): 1
UWDRS symptom: Arm and hand Dystonia, Change (Wk 48 - BL) (Wk 48 - BL): 3
UWDRS symptom: Cervical Dystonia, Change (Wk 48 - BL) (Wk 48 - BL): 8
UWDRS symptom: Chorea, Change (Wk 48 - BL) (Wk 48 - BL): 1
UWDRS symptom: Facial Expression, Change (Wk 48 - BL) (Wk 48 - BL): 1
UWDRS symptom: Finger Taps, Change (Wk 48 - BL) (Wk 48 - BL): 15
UWDRS symptom: Finger to Nose, Change (Wk 48 - BL) (Wk 48 - BL): 9
UWDRS symptom: Gait, Change (Wk 48 - BL) (Wk 48 - BL): 4
UWDRS symptom: Handwriting, Change (Wk 48 - BL) (Wk 48 - BL): 16
UWDRS symptom: Head Tremor, Change (Wk 48 - BL) (Wk 48 - BL): 5
UWDRS symptom: Involuntary Crying, Change (Wk 48 - BL) (Wk 48 - BL): 0
UWDRS symptom: Jaw Tremor, Change (Wk 48 - BL) (Wk 48 - BL): 0
UWDRS symptom: Leg Ability, Change (Wk 48 - BL) (Wk 48 - BL): 4
UWDRS symptom: Oculomotor, Change (Wk 48 - BL) (Wk 48 - BL): −2
UWDRS symptom: Postural Arm Tremor, Change (Wk 48 - BL) (Wk 48 - BL): 9
UWDRS symptom: Postural Leg Tremor, Change (Wk 48 - BL) (Wk 48 - BL): 5
UWDRS symptom: Posture, Change (Wk 48 - BL) (Wk 48 - BL): 4
UWDRS symptom: Pyramidal Signs, Change (Wk 48 - BL) (Wk 48 - BL): −2
UWDRS symptom: RAM of Hands, Change (Wk 48 - BL) (Wk 48 - BL): 14
UWDRS symptom: Rigidity, Change (Wk 48 - BL) (Wk 48 - BL): 14
UWDRS symptom: Speech, Change (Wk 48 - BL) (Wk 48 - BL): 7
UWDRS symptom: Stereotyped Actions, Change (Wk 48 - BL) (Wk 48 - BL): −4
UWDRS symptom: Tremor at rest, Change (Wk 48 - BL) (Wk 48 - BL): 1
UWDRS symptom: Wing-beating tremor, Change (Wk 48 - BL) (Wk 48 - BL): 3
UWDRS symptom: Arising from chair, Difference (TTM − SoC) [2]: 4
UWDRS symptom: Arm and hand Dystonia, Difference (TTM − SoC) [2]: 3
UWDRS symptom: Cervical Dystonia, Difference (TTM − SoC) [2]: 5
UWDRS symptom: Chorea, Difference (TTM − SoC) [2]: 6
UWDRS symptom: Facial Expression, Difference (TTM − SoC) [2]: 4
UWDRS symptom: Finger Taps, Difference (TTM − SoC) [2]: 20
UWDRS symptom: Finger to Nose, Difference (TTM − SoC) [2]: 6
UWDRS symptom: Gait, Difference (TTM − SoC) [2]: 2
UWDRS symptom: Handwriting, Difference (TTM − SoC) [2]: 13
UWDRS symptom: Head Tremor, Difference (TTM − SoC) [2]: 9
UWDRS symptom: Involuntary Crying, Difference (TTM − SoC) [2]: 3
UWDRS symptom: Jaw Tremor, Difference (TTM − SoC) [2]: 0
UWDRS symptom: Leg Ability, Difference (TTM − SoC) [2]: 11
UWDRS symptom: Oculomotor, Difference (TTM − SoC) [2]: 9
UWDRS symptom: Postural Arm Tremor, Difference (TTM − SoC) [2]: 8
UWDRS symptom: Postural Leg Tremor, Difference (TTM − SoC) [2]: 9
UWDRS symptom: Posture, Difference (TTM − SoC) [2]: 1
UWDRS symptom: Pyramidal Signs, Difference (TTM − SoC) [2]: 4
UWDRS symptom: RAM of Hands, Difference (TTM − SoC) [2]: 31
UWDRS symptom: Rigidity, Difference (TTM − SoC) [2]: 5
UWDRS symptom: Speech, Difference (TTM − SoC) [2]: 0
UWDRS symptom: Stereotyped Actions, Difference (TTM − SoC) [2]: 1
UWDRS symptom: Tremor at rest, Difference (TTM − SoC) [2]: 4
UWDRS symptom: Wing-beating tremor, Difference (TTM − SoC) [2]: 9

From patent US20260216238A1, “TETRATHIOMOLYBDIC ACID FOR USE IN TREATING COPPER METABOLISM-ASSOCIATED DISEASES OR DISORDERS (WILSON DISEASE)” (Alexion Pharmaceuticals, Inc., priority 2023, published 2026)
